The source of these data is patent US12441754B2, “Galactoside inhibitor of galectins” (GALECTO BIOTECH AB, priority 2019, dated 2025).

pKd: −log10 of the molar value. Like-named read-outs stand apart in the source and are kept apart here.

The target in one experiment is Galectin-1 (Homo sapiens, UniProt P09382). The experiment can be described thus: fluorescence anisotropy assay, compound as inhibitor of galectin / fluorescein tagged saccharide probe interaction. The experiment is classed as binding. From the text: (§1) Anal. Biochem. 334: 36-47, (Sörme et al., 2004) and Monovalent interactions of Galectin-1 By Salomonsson, Emma; Larumbe, Amaia; Tejler, Johan; Tullberg, Erik; Rydberg, Hanna; Sundin, Anders; Khabut, Areej; Frejd, Torbjorn; Lobsanov, Yuri D.; Rini, James M.; et al, From Biochemistry (2010), 49(44), 9518-9532, (Salomonsson et al., 2010).
Chain of Galectin-1 (P09382 whole entry): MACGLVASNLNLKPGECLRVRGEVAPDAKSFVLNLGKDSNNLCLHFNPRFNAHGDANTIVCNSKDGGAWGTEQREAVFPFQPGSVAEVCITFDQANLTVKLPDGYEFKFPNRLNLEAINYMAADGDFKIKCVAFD
In general terms: Polarisation of emitted light reports the rotation of a fluorescent probe.

In a further experiment the target is Galectin-3 (Homo sapiens, UniProt P17931). The experiment is described as above. The experiment is classed as binding.
Chain of Galectin-3 (P17931 whole entry): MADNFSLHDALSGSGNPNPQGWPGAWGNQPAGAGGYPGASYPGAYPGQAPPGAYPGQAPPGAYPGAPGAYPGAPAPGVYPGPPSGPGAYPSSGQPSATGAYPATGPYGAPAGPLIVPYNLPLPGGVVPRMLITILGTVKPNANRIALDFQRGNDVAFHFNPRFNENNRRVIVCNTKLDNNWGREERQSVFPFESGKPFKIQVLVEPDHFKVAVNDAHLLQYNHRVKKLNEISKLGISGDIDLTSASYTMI
Excerpt: as §1

The pKd is the Kd on a negative log10 scale, so that one unit is a factor of ten. Consider `CO[C@@H]1[C@@H](n2cc(-c3nccs3)nn2)[C@@H](O)[C@@H](CO)O[C@@H]1Sc1cc(Cl)cnc1C#N` [Example 4, 5-Chloro-2-cyanopyridin-3-yl 3-deoxy-2-O-methyl-3-[4-(2-thiazolyl)-1H-1,2,3-triazol-1-yl]-1-thio-α-D-galactopyranoside], for which the pKd at Galectin-1 was 6.96; on Galectin-3, 5.92.

For the molecule `OC[C@H]1O[C@H](Sc2cncc(Br)c2)[C@H](O)[C@@H](n2cc(-c3nc(Cl)cs3)nn2)[C@H]1O` [Example 49, 5-Bromopyridin-3-yl 3-[4-(4-chlorothiazol-2-yl)-1H-1,2,3-triazol-1-yl]-3-deoxy-1-thio-α-D-galactopyranoside], the pKd at Galectin-1 was 6.82; at Galectin-3, 6.72.

In the case of `CO[C@@H]1[C@@H](n2cc(-c3nc(Cl)cs3)nn2)[C@@H](O)[C@@H](CO)O[C@@H]1Sc1cnc2ncsc2c1` [Example 101, Thiazolo[4,5-b]pyridin-6-yl 3-[4-(4-chlorothiazol-2-yl)-1H-1,2,3-triazol-1-yl]-3-deoxy-2-O-methyl-1-thio-α-D-galactopyranoside], the negative logarithm of the Kd (pKd) at Galectin-1 is 6.96; at Galectin-3, 6.40.

For `CO[C@@H]1[C@@H](n2cc(-c3nc(Cl)cs3)nn2)[C@@H](O)[C@@H](CO)O[C@@H]1Sc1cncc(C#N)c1` [Example 82, 5-Cyanopyridin-3-yl 3-[4-(4-chlorothiazol-2-yl)-1H-1,2,3-triazol-1-yl]-3-deoxy-2-O-methyl-1-thio-α-D-galactopyranoside], the negative logarithm of the Kd (pKd) at Galectin-1 is 6.77; at Galectin-3, 6.28.

With `COC1C(n2cc(-c3nc(Cl)cs3)nn2)[C@@H](O)C(CO)O[C@@H]1Sc1cc(Cl)cnc1C(=O)N1CCC1` (stereo partly drawn) [Example 45, 5-Chloro-2-(N-azetidinylcarbamoyl)-3-pyridinyl 3-[4-(4-chlorothiazol-2-yl)-1H-1,2,3-triazol-1-yl]-3-deoxy-2-O-methyl-1-thio-α-D-galactopyranoside], the values for the pKd on Galectin-1 and on Galectin-3 were 7.66 and 7.13, respectively.

Take `OC[C@H]1O[C@H](Sc2ccc(Cl)c(Cl)c2)[C@H](OCC(F)(F)F)[C@@H](n2cc(-c3csc(O)n3)nn2)[C@H]1O` [Example 79, 3,4-Dichlorophenyl 3-deoxy-2-O-(2,2,2-trifluoroethyl)-3-[4-(2-hydroxythiazol-4-yl)-1H-1,2,3-triazol-1-yl]-1-thio-α-D-galactopyranoside]: the pKd on Galectin-1 was 6.34; at Galectin-3 it was 5.17.

Turning to `CO[C@@H]1[C@@H](n2cc(-c3csc(N)n3)nn2)[C@@H](O)[C@@H](CO)O[C@@H]1Sc1cc(Cl)ccc1C#N` [Example 73, 5-Chloro-2-cyanophenyl 3-[4-(2-aminothiazol-4-yl)-1H-1,2,3-triazol-1-yl]-3-deoxy-2-O-methyl-1-thio-α-D-galactopyranoside], the pKd on Galectin-1 is 7.25; on Galectin-3, 5.49.

Regarding `CC(C)O[C@@H]1[C@@H](n2cc(-c3csc(O)n3)nn2)[C@@H](O)[C@@H](CO)O[C@@H]1Sc1ccc(Cl)c(Cl)c1` [Example 8, 3,4-Dichlorophenyl 3-deoxy-3-[4-(2-hydroxythiazol-4-yl)-1H-1,2,3-triazol-1-yl]-2-O-isopropyl-1-thio-α-D-galactopyranoside], the negative-log Kd (pKd) on Galectin-1 is 7.00; at Galectin-3, below 4.00.

For `OC[C@H]1O[C@H](Sc2ccc(Cl)c(Cl)c2)C[C@@H](n2cc(-c3csc(O)n3)nn2)[C@H]1O` [Example 10, 3,4-Dichlorophenyl 2,3-dideoxy-3-[4-(2-hydroxythiazol-4-yl)-1H-1,2,3-triazol-1-yl]-1-thio-α-D-galactopyranoside], the values for the negative logarithm of the Kd (pKd) on Galectin-1 and at Galectin-3 were 7.09 and 5.28, respectively.

Regarding `CO[C@@H]1[C@@H](n2cc(-c3nc(C)cs3)nn2)[C@@H](O)[C@@H](CO)O[C@@H]1Sc1cc(C)cnc1C#N` [Example 35, 2-Cyano-5-methylpyridin-3-yl 3-deoxy-3-[4-(4-methylthiazol-2-yl)-1H-1,2,3-triazol-1-yl]-2-O-methyl-1-thio-α-D-galactopyranoside], the negative-log Kd (pKd) was 6.31 on Galectin-1 and 5.05 at Galectin-3.

Consider `CO[C@@H]1[C@@H](n2cc(-c3nc(Cl)cs3)nn2)[C@@H](O)[C@@H](CO)O[C@@H]1Sc1cc(Br)ccc1C#N` [Example 57, 5-Bromo-2-cyanophenyl 3-[4-(4-chlorothiazol-2-yl)-1H-1,2,3-triazol-1-yl]-3-deoxy-2-O-methyl-1-thio-α-D-galactopyranoside], for which the pKd at Galectin-1 is 7.68; at Galectin-3, 6.85.

As to `CO[C@@H]1[C@@H](n2cc(-c3csc(N)n3)nn2)[C@@H](O)[C@@H](CO)O[C@@H]1Sc1cc(Cl)cnc1-c1ccncc1` [Example 22, 5-Chloro-2-(pyridin-4-yl)pyridin-3-yl 3-[4-(2-aminothiazol-4-yl)-1H-1,2,3-triazol-1-yl]-3-deoxy-2-O-methyl-1-thio-α-D-galactopyranoside], the negative logarithm of the Kd (pKd) at Galectin-1 was 7.59; on Galectin-3, 5.39.

As for `CO[C@@H]1[C@@H](n2cc(-c3csc(N)n3)nn2)[C@@H](O)[C@@H](CO)O[C@@H]1Sc1cc(Cl)c(F)c(Cl)c1` [Example 16, 3,5-Dichloro-4-fluorophenyl 3-[4-(2-aminothiazol-4-yl)-1H-1,2,3-triazol-1-yl]-3-deoxy-2-O-methyl-1-thio-α-D-galactopyranoside], the pKd on Galectin-1 (read-out: Galectin-1 Kd) is 7.16; on Galectin-3, 5.08.

Regarding `CCO[C@@H]1[C@@H](n2cc(-c3csc(N)n3)nn2)[C@@H](O)[C@@H](CO)O[C@@H]1Sc1cc(Cl)cnc1C#N` [Example 72, 5-Chloro-2-cyanopyridin-3-yl 3-[4-(2-aminothiazol-4-yl)-1H-1,2,3-triazol-1-yl]-3-deoxy-2-O-ethyl-1-thio-α-D-galactopyranoside], the negative logarithm of the Kd (pKd) is 6.36 on Galectin-1 and 5.52 at Galectin-3.

As to `CO[C@@H]1[C@@H](n2cc(-c3csc(N)n3)nn2)[C@@H](O)[C@@H](CO)O[C@@H]1Sc1ccc2ncsc2c1` [Example 99, 1,3-Benzothiazol-6-yl 3-[4-(2-aminothiazol-4-yl)-1H-1,2,3-triazol-1-yl]-3-deoxy-2-O-methyl-1-thio-α-D-galactopyranoside], the figures for the pKd on Galectin-1 and on Galectin-3 were 6.74 and 5.12, respectively.

Regarding `CNC(=O)c1ccc(Br)cc1S[C@H]1OC(CO)[C@H](O)C(n2cc(-c3nccs3)nn2)C1OC` (stereo partly drawn) [Example 61, 5-Bromo-2-(N-methyl-carbonyl)phenyl 3-deoxy-2-O-methyl-3-[4-(2-thiazolyl)-1H-1,2,3-triazol-1-yl]-1-thio-α-D-galactopyranoside], the pKd was 7.10 at Galectin-1 and 5.52 at Galectin-3.

Consider `CO[C@@H]1[C@@H](n2cc(-c3csc(N)n3)nn2)[C@@H](O)[C@@H](CO)O[C@@H]1Sc1ccc(C(F)(F)F)c(Cl)c1` [Example 30, 3-Chloro-4-(trifluoromethyl)phenyl 3-[4-(2-aminothiazol-4-yl)-1H-1,2,3-triazol-1-yl]-3-deoxy-2-O-methyl-1-thio-α-D-galactopyranoside], for which the pKd is 6.92 at Galectin-1 and 5.60 at Galectin-3.

Regarding `CO[C@@H]1[C@@H](n2cc(-c3csc(N)n3)nn2)[C@@H](O)[C@@H](CO)O[C@@H]1Sc1cc(Cl)cnc1-c1cccnc1` [Example 23, 5-Chloro-2-(pyridin-3-yl)pyridin-3-yl 3-[4-(2-aminothiazol-4-yl)-1H-1,2,3-triazol-1-yl]-3-deoxy-2-O-methyl-1-thio-α-D-galactopyranoside], the negative-log Kd (pKd) at Galectin-1 was 7.52; on Galectin-3 it was 5.38.

`CO[C@@H]1[C@@H](n2cc(-c3csc(N)n3)nn2)[C@@H](O)[C@@H](CO)O[C@@H]1Sc1cnc(C(F)(F)F)c(C#N)c1` [Example 44, 3-Cyano-2-(trifluoromethyl)pyridin-5-yl 3-[4-(2-aminothiazol-4-yl)-1H-1,2,3-triazol-1-yl]-3-deoxy-2-O-methyl-1-thio-α-D-galactopyranoside]: the negative-log Kd (pKd) on Galectin-1 was 6.44; on Galectin-3, 4.78.

For the molecule `CO[C@@H]1[C@@H](n2cc(-c3csc(O)n3)nn2)[C@@H](O)[C@@H](CO)O[C@@H]1Sc1cc(Cl)c(F)c(Cl)c1` [Example 7, 3,5-Dichloro-4-fluorophenyl 3-deoxy-3-[4-(2-hydroxythiazol-4-yl)-1H-1,2,3-triazol-1-yl]-2-O-methyl-1-thio-α-D-galactopyranoside], the pKd on Galectin-1 (read-out: Galectin-1 Kd) is 7.54; on Galectin-3, 5.59.

In the case of `COC1C(n2cc(-c3csc(N)n3)nn2)[C@@H](O)C(CO)O[C@@H]1Sc1ccc(Cl)c(Cl)c1` (stereo partly drawn) [Example 28, 3,4-Dichlorphenyl 3-[4-(2-aminothiazol-4-yl)-1H-1,2,3-triazol-1-yl]-3-deoxy-2-O-methyl-1-thio-α-D-galactopyranoside], the pKd is 7.20 on Galectin-1 (read-out: Galectin-1 Kd) and 5.62 on Galectin-3.

As to `C#Cc1cncc(S[C@H]2O[C@H](CO)[C@H](O)[C@H](n3cc(-c4nc(Cl)cs4)nn3)[C@H]2OC)c1` [Example 37, 5-Ethynylpyridin-3-yl 3-[4-(4-chlorothiazol-2-yl)-1H-1,2,3-triazol-1-yl]-3-deoxy-2-O-methyl-1-thio-α-D-galactopyranoside], the negative logarithm of the Kd (pKd) at Galectin-1 is 6.70; at Galectin-3, 6.41.

As for `CO[C@@H]1[C@@H](n2cc(-c3nc(Cl)cs3)nn2)[C@@H](O)[C@@H](CO)O[C@@H]1Sc1cc2scnc2cc1C#N` [Example 100, 5-Cyano-1,3-benzothiazol-6-yl 3-[4-(4-chlorothiazol-2-yl)-1H-1,2,3-triazol-1-yl]-3-deoxy-2-O-methyl-1-thio-α-D-galactopyranoside], the figures for the negative logarithm of the Kd (pKd) on Galectin-1 and on Galectin-3 were 7.49 and 6.74, respectively.

On to `OC[C@H]1O[C@H](Sc2cncc(Cl)c2)[C@H](O)[C@@H](n2cc(-c3nc(Cl)cs3)nn2)[C@H]1O` [Example 48, 5-Chloropyridin-3-yl 3-[4-(4-chlorothiazol-2-yl)-1H-1,2,3-triazol-1-yl]-3-deoxy-1-thio-α-D-galactopyranoside], for which the figures for the negative logarithm of the Kd (pKd) at Galectin-1 and on Galectin-3 were 6.82 and 6.38, respectively.
